Several values for one entry are separate records, joined by “and”; a condition that tells them apart may be missing. Equal values may be shown once.

This test deals with BDF1 mice, Adenocarcinoma 755 s.c., tumor weight T/C. Briefly: NCI In Vivo Anticancer Drug Screen. Data for tumor model Adenocarcinoma 755 (subcutaneous) in B6D2F1 (BDF1) mice. Particulars: endpoint: mean tumor weight, higher = larger tumour. Here is the method:
The antitumor activity of compounds was measured in mice bearing transplantable tumors. Survival or tumor size were measured and the results are expressed as the measurement made in the treated group (T) divided by the measurement made in the vehicle treated control group (C). The tumor model used in this assay is Adenocarcinoma 755 (subcutaneous) in B6D2F1 (BDF1) mice

Where [1] appears, read: dose: 15.0 mg/kg/injection, schedule: Q01DX011 (ip), vehicle: methylcellulose (MC).
Where [2] appears, read: dose: 31.0 mg/kg/injection, schedule: Q01DX011 (ip), vehicle: methylcellulose (MC).
The mark [3] stands for this setting: dose: 62.0 mg/kg/injection, schedule: Q01DX011 (ip), vehicle: methylcellulose (MC).
The mark [4] stands for this setting: dose: 125.0 mg/kg/injection, schedule: Q01DX011 (ip), vehicle: methylcellulose (MC).
Where [5] appears, read: dose: 250.0 mg/kg/injection, schedule: Q01DX011 (ip), vehicle: methylcellulose (MC).
[6] abbreviates: dose: 50.0 mg/kg/injection, schedule: Q01DX011 (ip), vehicle: carboxymethylcellulose (CMC).

`CCOC(=O)C(C)(C)Br`: the T/C reads like this: (dose: 50.0 mg/kg/injection, schedule: Q01DX011 (ip), vehicle: methylcellulose (MC)) 85 % of control; (dose: 100.0 mg/kg/injection, schedule: Q01DX011 (ip), vehicle: methylcellulose (MC)) 107 % of control; (dose: 200.0 mg/kg/injection, schedule: Q01DX011 (ip), vehicle: methylcellulose (MC)) 47 % of control; (dose: 400.0 mg/kg/injection, schedule: Q01DX011 (ip), vehicle: methylcellulose (MC)) 18 % of control; (dose: 500.0 mg/kg/injection, schedule: Q01DX011 (ip), vehicle: methylcellulose (MC)) 13 % of control.
Consider `[N-]=[N+]=[N-]`, for which the T/C reads like this: (dose: 1.06 mg/kg/injection, schedule: Q01DX011 (ip), vehicle: carboxymethylcellulose (CMC)) 114 % of control; (dose: 1.55 mg/kg/injection, schedule: Q01DX011 (ip), vehicle: carboxymethylcellulose (CMC)) 75 % of control; (dose: 2.13 mg/kg/injection, schedule: Q01DX011 (ip), vehicle: carboxymethylcellulose (CMC)) 61 % of control; (dose: 3.1 mg/kg/injection, schedule: Q01DX011 (ip), vehicle: carboxymethylcellulose (CMC)) 82 % of control; (dose: 4.25 mg/kg/injection, schedule: Q01DX011 (ip), vehicle: carboxymethylcellulose (CMC)) 80 % of control; (dose: 6.2 mg/kg/injection, schedule: Q01DX011 (ip), vehicle: carboxymethylcellulose (CMC)) 57 % of control. In addition, the T/C (dose: 8.5 mg/kg/injection, schedule: Q01DX011 (ip), vehicle: carboxymethylcellulose (CMC)) is 80 % of control and the T/C (dose: 12.4 mg/kg/injection, schedule: Q01DX011 (ip), vehicle: carboxymethylcellulose (CMC)) is 80 % of control.
In the case of `Cc1ccccc1Nc1nc(N)nc(C)c1Br`, the T/C by setting is: under setting [1], 55 % of control; under setting [2], 88 % of control; under setting [3], 106 % of control; under setting [4], 72 % of control; under setting [5], 81 % of control.
As for `C[C@H](N)C(=O)N[C@@H]1[C@H]2C(=C(O)C[C@@H](O)[C@@H]2O)C(=O)O[C@@H]1C`, the T/C runs as follows: (dose: 250.0 mg/kg/injection, schedule: Q01DX011 (ip), vehicle: saline) 79 % of control; (dose: 500.0 mg/kg/injection, schedule: Q01DX011 (ip), vehicle: saline) 64 % of control.
Consider `CC1CCC(n2cnc3c(=S)nc[nH]c32)O1` (centres undefined), for which the T/C (dose: 1.8 mg/kg/injection, schedule: Q01DX011 (ip), vehicle: carboxymethylcellulose (CMC)) is 86 % of control; the T/C (dose: 3.7 mg/kg/injection, schedule: Q01DX011 (ip), vehicle: carboxymethylcellulose (CMC)) was 12 % of control; the T/C (dose: 7.5 mg/kg/injection, schedule: Q01DX011 (ip), vehicle: carboxymethylcellulose (CMC)) was 3 % of control; the T/C (dose: 15.0 mg/kg/injection, schedule: Q01DX011 (ip), vehicle: carboxymethylcellulose (CMC)) was 3 % of control.
In the case of `O=C(Nc1ccc2c(O)c(N=Nc3ccccc3)c(S(=O)(=O)O)cc2c1)Nc1ccc2c(O)c(N=Nc3ccc4cc(S(=O)(=O)O)ccc4c3)c(S(=O)(=O)O)cc2c1`, under “dose: 45.0 mg/kg/injection, schedule: Q01DX011 (ip), vehicle: carboxymethylcellulose (CMC)”, the T/C is 47 % of control.
Take `Nc1nc(Nc2ccccc2Cl)cc(=O)[nH]1`: the T/C by setting is: under setting [1], 119 % of control; under setting [3], 95 % of control.
As to `Cc1nc(C(N)=O)nc2ccccc12`, the T/C by setting is: (dose: 31.25 mg/kg/injection, schedule: Q01DX011 (ip), vehicle: methylcellulose (MC)) 102 % of control; under setting [6], 99 % of control; (dose: 100.0 mg/kg/injection, schedule: Q01DX011 (ip), vehicle: carboxymethylcellulose (CMC)) 80 % of control; (dose: 200.0 mg/kg/injection, schedule: Q01DX011 (ip), vehicle: carboxymethylcellulose (CMC)) 58 % of control; (dose: 400.0 mg/kg/injection, schedule: Q01DX011 (ip), vehicle: carboxymethylcellulose (CMC)) 32 % of control.
Consider `CC(=O)OC1(C)CC(C)C(=O)C(C(O)CC2CC(=O)NC(=O)C2)C1` (centres undefined), for which the T/C is, setting by setting: (dose: 0.2 mg/kg/injection, schedule: Q01DX006 (ip), vehicle: other) 38 % of control; (dose: 0.5 mg/kg/injection, schedule: Q01DX006 (ip), vehicle: other) 17 % of control; (dose: 0.5 mg/kg/injection, schedule: Q01DX006 (ip), vehicle: water) 72 % of control; (dose: 2.0 mg/kg/injection, schedule: Q01DX006 (ip), vehicle: water) 66 % of control; (dose: 5.0 mg/kg/injection, schedule: Q01DX006 (ip), vehicle: water) 114 % of control; (dose: 10.0 mg/kg/injection, schedule: Q01DX006 (ip), vehicle: water) 71 % of control. Also, the T/C (dose: 1:500.0 dilution, schedule: Q01DX006 (ip), vehicle: water) was 84 % of control; the T/C (dose: 1:1000.0 dilution, schedule: Q01DX006 (ip), vehicle: water) was 115 % of control; the T/C (dose: 1:2000.0 dilution, schedule: Q01DX006 (ip), vehicle: water) was 105 % of control and 83 % of control; the T/C (dose: 1:20000.0 dilution, schedule: Q01DX006 (ip), vehicle: water) was 39 % of control; the T/C (dose: 1:100000.0 dilution, schedule: Q01DX006 (ip), vehicle: water) is 101 % of control.
As to `O=c1[nH]c2[nH]c(S(=O)(=O)O)nc(=S)c2[nH]1`, the T/C is 43 % of control (dose: 75.0 mg/kg/injection, schedule: Q01DX011 (ip), vehicle: methylcellulose (MC)); 55 % of control (dose: 150.0 mg/kg/injection, schedule: Q01DX011 (ip), vehicle: methylcellulose (MC)); 67 % of control (dose: 300.0 mg/kg/injection, schedule: Q01DX011 (ip), vehicle: methylcellulose (MC)); 28 % of control (dose: 600.0 mg/kg/injection, schedule: Q01DX011 (ip), vehicle: methylcellulose (MC)).
Turning to `CCCCn1cnc2c(=S)nc(N)[nH]c21`, the T/C runs as follows: (dose: 0.6 mg/kg/injection, schedule: Q01DX011 (ip), vehicle: carboxymethylcellulose (CMC)) 57 % of control; (dose: 1.2 mg/kg/injection, schedule: Q01DX011 (ip), vehicle: carboxymethylcellulose (CMC)) 35 % of control; (dose: 1.2 mg/kg/injection, schedule: Q01DX011 (ip), vehicle: olive oil, sesame oil, peanut oil) 60 % of control; (dose: 2.5 mg/kg/injection, schedule: Q01DX011 (ip), vehicle: carboxymethylcellulose (CMC)) 2 % of control; (dose: 2.5 mg/kg/injection, schedule: Q01DX011 (ip), vehicle: olive oil, sesame oil, peanut oil) 33 % of control.
In the case of `CS(=O)(=O)OCCC(=O)NCCCCCCNC(=O)CCOS(C)(=O)=O`, the T/C is 117 % of control (dose: 57.0 mg/kg/injection, schedule: Q01DX011 (ip), vehicle: methylcellulose (MC)); 110 % of control (dose: 113.0 mg/kg/injection, schedule: Q01DX011 (ip), vehicle: methylcellulose (MC)); 45 % of control (dose: 225.0 mg/kg/injection, schedule: Q01DX011 (ip), vehicle: methylcellulose (MC)).
`C[C@]12CCCC[C@@H]1CC[C@@H]1[C@@H]2[C@@](C)(O)C[C@@]2(C)[C@H]1CC[C@]2(C)O`: the T/C (dose: 300.0 mg/kg/injection, schedule: Q01DX011 (sc), vehicle: steriod suspending solution) is 79 % of control.
On to `C=CCn1cnc2c(Cl)ncnc21`, for which the T/C (dose: 25.0 mg/kg/injection, schedule: Q01DX011 (ip), vehicle: carboxymethylcellulose (CMC)) is 10 % of control and the T/C under setting [6] is 6 % of control.
As for `O=[N+]([O-])c1cc([N+](=O)[O-])c(NN(c2ccccc2)c2ccccc2)c([N+](=O)[O-])c1`, under “dose: 25.0 mg/kg/injection, schedule: Q01DX011 (ip), vehicle: other”, the T/C was 86 % of control.
As to `CCOc1ccccc1Nc1nc(N)nc(Cl)c1CC`, the T/C is 73 % of control under setting [1]; 79 % of control under setting [2]; 87 % of control under setting [3]; 98 % of control under setting [4]; 100 % of control under setting [5].

The record behind these values is PubChem BioAssay AID180 (DTP/NCI, 2004).
